Measured values published in patent US6596705B1, “Inhibition of L-selectin and P-selection mediated binding using heparin” (The Regents of the University of California, priority 1998, dated 2003).

How the values were obtained:
P-selectin = assay: ELISA inhibition of P-selectin binding to immobilized SLe^x; settings: average of 2-3 experiments, concentration from assumed average molecular weight
Method: (§1) ELISA inhibition assays were performed as previously reported (O'Connell et al., Proc. Natl. Acad. Sci. USA 93:5883-5887 (1996); Koenig et al., supra, 1997). Sterile 96 well ELISA plates were coated with 200 ng of polyacrylamide-SLe^x (Glycotech; Rockville Md.) by overnight incubation at […] in 100 μl of 50 mM sodium carbonate/bicarbonate buffer, pH 9.5. Plates were blocked for at least 2 hours at 4° C. with 200 μl of 20 mM Hepes, 125 mM NaCl, 2 mM CaCl2, 2 mM MgCl2, 1% protease-free BSA, pH 7.45 (osmolarity 290 milliosmoles) per well. During the blocking step, the selectin-Rg chimeras were separately preincubated at 4° C. with a peroxidase-conjugated goat anti-human IgG secondary antibody (Jackson Immunoresearch Laboratories, Inc.; West Grove Pa.) in assay buffer for approximately 1 hour.
(§2) Final selectin-Rg concentration was 20 nM, and the secondary antibody dilution was 1:1000. […]
(§3) These tubes were preincubated at 4° C. for 30 minutes, then added to ELISA plates, in duplicates, to a well volume of 100 μl. […] The absorbance at 492 nm was determined using SOFTMAX software and a microplate reader (Molecular Devices Inc., Menlo Park Calif.). Prior to curve fitting, the absorbance values were converted into percentages for comparative purposes using the formula: ({(average of duplicates)−(negative control)}/{(positive control)−(negative control)})×100) using the SOFTMAX software.

L-selectin = assay: ELISA inhibition of L-selectin binding to immobilized SLe^x; settings: average of 2-3 experiments, concentration from assumed average molecular weight
Chain of L-selectin (P14151 39-318 limits assumed): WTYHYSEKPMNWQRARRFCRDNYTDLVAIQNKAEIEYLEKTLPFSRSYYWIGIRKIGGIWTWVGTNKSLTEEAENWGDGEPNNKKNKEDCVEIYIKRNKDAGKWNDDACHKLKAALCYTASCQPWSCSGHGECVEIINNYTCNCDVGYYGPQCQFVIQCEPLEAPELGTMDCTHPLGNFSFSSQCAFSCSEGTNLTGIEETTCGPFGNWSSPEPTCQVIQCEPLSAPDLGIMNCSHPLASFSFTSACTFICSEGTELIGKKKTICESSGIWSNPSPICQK
Method: as §1, §2, §3

Chain of P-selectin (P16109 42-195 limits assumed): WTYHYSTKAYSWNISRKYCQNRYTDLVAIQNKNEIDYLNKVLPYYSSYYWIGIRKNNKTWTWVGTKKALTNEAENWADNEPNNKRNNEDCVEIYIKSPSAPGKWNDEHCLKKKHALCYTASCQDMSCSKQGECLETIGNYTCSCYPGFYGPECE

IC50 (P-selectin): 520 µM
IC50 (L-selectin): 600 µM
Substance: Siao2-3 Galβ1-4 (Fucal-3) GlcNAc [Sialyl Lewis^x]
